# Patent publication US11761894B2, “Silicon-rhodamine fluorescent probe containing hydrophobic group and use thereof” (AJOU UNIVERSITY INDUSTRY—ACADEMIC COOPERATION FOUNDATION, priority 2019, dated 2023)
# “Also recorded” adds a separate entry of the source.
# Key:
# [1] = system: HeLa, Hep3B, HepG2 and Raw 264.7 cells; assay: Cytotoxicity test (mitochondrial respiration viability assay, CellTiter 96 Aqueous One); format: cell-based, human; mouse; conditions: up to the 24 hr time point, moderate dose (less than 1 μM)
# Method: HeLa, Hep3B, HepG2 and Raw 264.7 cells were incubated with SiR-Mito 8, concentration range from 0.25 μM to 10 μM, for 1, 4, 12, and 24 h. Viability of the cells was normalized by DMSO control.
# In order to use SiR-Mito 8 as a potential NIR fluorescent tracer for mitochondrial staining, cytotoxicity of the probes was evaluated. HeLa, Hep3B, HepG2 and Raw 264.7 cells were incubated with SiR-Mito 8 at various concentrations (from 0.25 to 10.0 μM) and cytotoxicity was measured by a mitochondrial respiration viability assay.
# Specifically, HeLa human cervical cancer cells, Hep3B and HepG2 human hepatocellular carcinoma cells, and Raw264.7 mouse macrophage cells were seeded into 96-well cell culture plates per well and allowed to adhere to the plates overnight. The cells were incubated with cell culture media containing each concentration of SiR-Mito 8 (0.25 μM to 10 μM) for 1, 4, 12 or 24 h. After incubation, CellTiter 96® Aqueous One Solution Cell Proliferation Assay (Promega) was added into each well. After 2 h, 490 nm absorption was measured with Cytation 3 microplate reader (BioTek). Cytotoxicity of SiR-Mito 8 was tested in triplicate in a single experiment, with each experiment being repeated at least three times.
# [2] = system: Mitochondria-YFP Chang liver cells; assay: Mitochondrial targeting efficiency in Chang liver cells expressing mitochondrial YFP; format: cell-based, human; conditions: 1 μM, 60 min
# Method: (a) HeLa and Hep3B cells were incubated with MitoTracker Green (0.5 μM), and SiR-Mito 8 (1 μM) for 1 h. After washing 3 times with fresh media, fluorescent live cell images were acquired with LEICA DMi8 microscope. (MitoTracker green: FITC channel, SiR-Mito 8: Cy 5 channel, Scale bar: 15 μm); (b) Chang liver cells expressing mitochondrial YFP were incubated with SiR-Mito 8 (1 μM) for 1 h. After washing 3 times with fresh media, fluorescent live cell images were acquired with LEICA DMi8 microscope. (Mitochondrial-YFP: Rhodamine channel, Scale bar: 15 μm).
# The mitochondrial targeting efficiency of SiR-Mito 8 in live cells was examined by high-resolution imaging.
# To this end, Overexpression plasmid for Mitochondria-YFP was obtained from Catholic University (Seoul, Korea) and transfected into Chang liver cells. Stable clones expressing Mitochondria-YFP was selected using 0.25 mg/ml G418. Next, Mitochondria-YFP infected Chang liver cells were cultured in Dulbecco's modified eagle media (DMEM, GIBCO) containing 10% fetal bovine serum (FBS, GIBCO) and 1% penicillin (GIBCO) at 37° C. in a humidified incubator with 5% CO2. For the fluorescence microscope imaging, cells were harvested using TrypLE™ Express (GIBCO) and resuspended in fresh culture medium. […] Cells were washed three times with 1×PBS and observed with inverted fluorescence microscope (DMi8, LEICA).
# [3] = system: mitochondria in HeLa cells; assay: Colocalization test of SiR-Mito probes with MitoTracker green in HeLa cells; format: cell-based, human; conditions: 1 μM probe, 1 h
# Method: HeLa cells were incubated with cell culture media containing 1 μM SiR-Mito probe, and 0.5 μM MitoTracker green. After 1 h, HeLa cells were washed three times with 1×PBS for and observed with a LEICA DMi8 fluorescent microscope. Each experiment was observed using 512-542 nm emitter for FITC channel (for MitoTracker Green), and 663-738 nm exciter, 545-625 nm emitter for Cy5 channel (for SiR-Mito probes). Scale bar: 50 μm.
# HeLa human cervical cancer cells were cultured in Dulbecco's modified eagle media (DMEM, GIBCO) containing 10% fetal bovine serum (FBS, GIBCO) and 1% penicillin (GIBCO) at 37° C. in a humidified incubator with 5% CO2. For the fluorescence microscope imaging, cells were harvested using TrypLE™ Express (GIBCO) and resuspended in fresh culture medium. Harvested cells with a density of 4.0×10^3 cells/well were seeded on a HeLa 96 black well plate (CORNING) and incubated for 24 h. Cells were incubated with SiR-Mito probes (1 μM) and MitoTracker Green (0.5 μM) for 60 min. After the incubation, cells were washed with 1×PBS for three times and observed with inverted fluorescence microscope (DMi8, LEICA). Each experiment was observed using a 325-375 nm exciter, 435-485 nm emitter for DAPI channel, 460-500 nm exciter, 512-542 nm emitter for FITC channel, 541-551 nm exciter, 565-605 nm emitter for Rhodamine channel, and 663-738 nm exciter, 545-625 nm emitter for Cy5 channel.
# To determine the effect of probe hydrophobicity on the efficiency of targeting to mitochondria, the Pearson coefficient for colocalization of SiR-Mito probes and MitoTracker green, a commercial fluorescent mitochondrial bioprobe, was measured (FIG. 1). For the colocalization test, human cervical cancer HeLa cells were seeded on 96-well plates and incubated for 1 h with 1 μM of each different SiR-Mito probe and 0.5 μM MitoTracker green, washed briefly with 1×PBS, and imaged with a LEICA DMi8 fluorescent microscope using the 40× objective.
# Hep3B cells = assay: Co-staining with Hoechst and Lysotracker Red in Hep3B cells; format: cell-based, human; conditions: 1 μM, 1 h
# Method: Liver cancer Hep3B cells were incubated with Hoechst (0.01 μg/ml), Lysotracker red (1 μM), and SiR-Mito 8 (1 μM) for 1 h. After washing 3 times with fresh media, fluorescence live cell images were acquired with a LEICA DMi8 microscope (Left). […] Scale bar: 50 μm.
# To verify the mitochondrial specificity of the SiR-Mito 8 probe, Hep3B human cancer cells were co-stained with a nuclear and a lysosomal tracer, in addition to SiR-Mito 8.
# To this end, 6.0×10^4 human HCC cell line Hep3B cells were seeded on confocal dish and incubated for 2 days. After 2 days, Hep3B cells were incubated with Hoechst, 1 μM Lysotracker Red, and 1 μM SiR-Mito 8 contained media for 1 h. After the incubation, Hep3B cells were washed with cell culture media for three times and observed with inverted fluorescence microscope (DMi8, LEICA).
substance,measurement,setting,value
"N-(10-(5-((cyclooctylmethyl) carbamoyl)-2-methylphenyl)-7-(dimethylamino)-5,5-dimethyldibenzo[b,e]silin-3(5H)-ylidene)-N-methylmethanaminium [SiR-Mito 8]",Cytotoxicity,[1],no acute cytotoxicity
same,Mitochondrial targeting efficiency,[2],high mitochondrial targeting efficiency
same,Mitochondria Targeting (Pearson coefficient for colocalization with MitoTracker green),[3]; 0.5 μM MitoTracker green,*** (*** 0.9 ≤ R)
same,Pearson coefficient for colocalization with MitoTracker green,[3]; 0.5 μM MitoTracker green,highest
same,Intracellular fluorescence (SiR channel),[3],strongest
same,Mitochondrial specificity versus lysosome (Lysotracker Red co-staining),Hep3B cells,high mitochondrial specificity; also recorded: did not localize to other organelle such as lysosome
